# Experimental data reported in patent US10681909B2, “Herbicidal triazoles” (FMC Corporation, priority 2014, dated 2020).
# Assays:
# [1] = tested on: rice; test: Test B flooded paddy test; format: in vivo, Oryza sativa; conditions: Oryza sativa, 360 h, 250 g ai/ha, applied to paddy water at 2-leaf stage, visual rating after 13 to 15 d, scale 0 (no effect) to 100 (complete control), read-out: Plant response rating, Rice, Flood
# How it was run: (§1)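 Pots were flooded to 3 cm above the soil at treatment, and compounds were applied directly into the paddy water. That depth was held throughout. After 13 to 15 d in a greenhouse, plants were rated visually against untreated controls.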
# [2] = tested on: lambsquarters; test: Test C postemergence; format: in vivo, Chenopodium album
# How it was run: (§2)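 Surfactant-containing, non-phytotoxic solvent formulations of each compound were applied either preemergence to seeds in a loam soil–sand blend or postemergence to plants 2 to 18 cm tall (1- to 4-leaf stage). Postemergence plants were grown in peat moss–vermiculite medium.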
# [3] = tested on: foxtail, giant; test: Test C postemergence; format: in vivo, Setaria faberii
# How it was run: as §2
# [4] = tested on: barnyardgrass; test: Test A preemergence; format: in vivo, Echinochloa crus-galli; conditions: Echinochloa crus-galli, pre-emergence, 240 h, 0 to 100 scale (0 no effect, 100 complete control), read-out: Plant response rating, Barnyardgrass
# How it was run: (§3)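 Pre- and postemergence spray tests in a loam soil–sand mixture: seeded soil received a directed spray, while established seedlings 2–10 cm high at the one- to two-leaf stage were treated over the top. Compounds were carried in non-phytotoxic solvent with surfactant.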
# [5] = tested on: wheat; test: Test A postemergence; format: in vivo, Triticum aestivum; conditions: Triticum aestivum, post-emergence, 240 h, 0 to 100 scale (0 no effect, 100 complete control), approx. 10 d, read-out: Plant response rating, Wheat
# How it was run: as §3
# [6] = tested on: sedge, umbrella; test: Test B flooded paddy test; format: in vivo, Cyperus difformis; conditions: Cyperus difformis, 360 h, 250 g ai/ha, applied to paddy water at 2-leaf stage, visual rating after 13 to 15 d, scale 0 (no effect) to 100 (complete control), read-out: Plant response rating, Sedge, Umbrella, Flood
# How it was run: as §1
# [7] = tested on: oat, wild; test: Test C postemergence; format: in vivo, Avena fatua
# How it was run: as §2
# [8] = tested on: blackgrass; test: Test C postemergence; format: in vivo, Alopecurus myosuroides
# How it was run: as §2
# [9] = tested on: waterhemp; test: Test C postemergence; format: in vivo, Amaranthus rudis
# How it was run: as §2
# [10] = tested on: morningglory; test: Test C postemergence; format: in vivo, Ipomoea coccinea
# How it was run: as §2
# [11] = tested on: nutsedge, yellow; test: Test C postemergence; format: in vivo, Cyperus esculentus
# How it was run: as §2
# [12] = tested on: barnyardgrass; test: Test B flooded paddy test; format: in vivo, Echinochloa crus-galli; conditions: Echinochloa crus-galli, 360 h, 250 g ai/ha, applied to paddy water at 2-leaf stage, visual rating after 13 to 15 d, scale 0 (no effect) to 100 (complete control), read-out: Plant response rating, Barnyardgrass, Flood
# How it was run: as §1
# [13] = tested on: chickweed; test: Test C postemergence; format: in vivo, Stellaria media
# How it was run: as §2
# [14] = tested on: pigweed; test: Test C postemergence; format: in vivo, Amaranthus retroflexus
# How it was run: as §2
# [15] = tested on: ryegrass, Italian; test: Test C postemergence; format: in vivo, Lolium multiflorum
# How it was run: as §2
# [16] = tested on: corn; test: Test A postemergence; format: in vivo, Zea mays; conditions: Zea mays, post-emergence, 240 h, 0 to 100 scale (0 no effect, 100 complete control), approx. 10 d
# How it was run: as §3
# [17] = tested on: wheat (winter wheat); test: Test C postemergence; format: in vivo, Triticum aestivum
# How it was run: as §2
# [18] = tested on: oilseed rape; test: Test C postemergence; format: in vivo, Brassica napus
# How it was run: as §2
# [19] = tested on: kochia; test: Test C postemergence; format: in vivo, Kochia scoparia
# How it was run: as §2
# [20] = tested on: barnyardgrass; test: Test A postemergence; format: in vivo, Echinochloa crus-galli; conditions: Echinochloa crus-galli, post-emergence, 240 h, 0 to 100 scale (0 no effect, 100 complete control), approx. 10 d, read-out: Plant response rating, Barnyardgrass
# How it was run: as §3
compound,measurement,setting,value
"CCCc1nc(-c2ccc(F)cc2)nn1Cc1ccnc(C(F)(F)F)c1 [Compound 6, 4-[[3-(4-fluorophenyl)-5-propyl-1H-1,2,4-triazol-1-yl]methyl]-2-(trifluoromethyl)pyridine]",plant injury at 250 g/ha,[1],50%
same,Plant response rating (scale of 0 to 100 where 0 is no effect and 100 is complete control),[2]; 31 g ai/ha,65
same,Plant response rating (scale of 0 to 100 where 0 is no effect and 100 is complete control),[2]; 62 g ai/ha,70
same,Plant response rating (scale of 0 to 100 where 0 is no effect and 100 is complete control),[2]; 125 g ai/ha,85
same,Plant response rating (scale of 0 to 100 where 0 is no effect and 100 is complete control),[2]; 250 g ai/ha,85
same,Plant response rating (scale of 0 to 100 where 0 is no effect and 100 is complete control),[3]; 31 g ai/ha,40
same,Plant response rating (scale of 0 to 100 where 0 is no effect and 100 is complete control),[3]; 62 g ai/ha,40
same,Plant response rating (scale of 0 to 100 where 0 is no effect and 100 is complete control),[3]; 125 g ai/ha,45
same,Plant response rating (scale of 0 to 100 where 0 is no effect and 100 is complete control),[3]; 250 g ai/ha,75
same,pest or weed control at 125 g/ha,[4]; 125 g ai/ha,80%
same,pest or weed control at 500 g/ha,"[4]; 500 g ai/ha, approx. 10 d",100%
same,plant injury at 125 g/ha,[5]; 125 g ai/ha,40%
same,plant injury at 500 g/ha,[5]; 500 g ai/ha,70%
same,pest or weed control at 250 g/ha,[6],80%
same,Plant response rating (scale of 0 to 100 where 0 is no effect and 100 is complete control),[7]; 31 g ai/ha,5
same,Plant response rating (scale of 0 to 100 where 0 is no effect and 100 is complete control),[7]; 62 g ai/ha,5
same,Plant response rating (scale of 0 to 100 where 0 is no effect and 100 is complete control),[7]; 125 g ai/ha,10
same,Plant response rating (scale of 0 to 100 where 0 is no effect and 100 is complete control),[7]; 250 g ai/ha,10
same,Plant response rating (scale of 0 to 100 where 0 is no effect and 100 is complete control),[8]; 31 g ai/ha,5
same,Plant response rating (scale of 0 to 100 where 0 is no effect and 100 is complete control),[8]; 62 g ai/ha,5
same,Plant response rating (scale of 0 to 100 where 0 is no effect and 100 is complete control),[8]; 125 g ai/ha,5
same,Plant response rating (scale of 0 to 100 where 0 is no effect and 100 is complete control),[8]; 250 g ai/ha,10
same,Plant response rating (scale of 0 to 100 where 0 is no effect and 100 is complete control),[9]; 31 g ai/ha,80
same,Plant response rating (scale of 0 to 100 where 0 is no effect and 100 is complete control),[9]; 62 g ai/ha,80
same,Plant response rating (scale of 0 to 100 where 0 is no effect and 100 is complete control),[9]; 125 g ai/ha,80
same,Plant response rating (scale of 0 to 100 where 0 is no effect and 100 is complete control),[9]; 250 g ai/ha,85
same,Plant response rating (scale of 0 to 100 where 0 is no effect and 100 is complete control),[10]; 31 g ai/ha,90
same,Plant response rating (scale of 0 to 100 where 0 is no effect and 100 is complete control),[10]; 62 g ai/ha,95
same,Plant response rating (scale of 0 to 100 where 0 is no effect and 100 is complete control),[10]; 125 g ai/ha,98
same,Plant response rating (scale of 0 to 100 where 0 is no effect and 100 is complete control),[11]; 31 g ai/ha,5
same,Plant response rating (scale of 0 to 100 where 0 is no effect and 100 is complete control),[11]; 62 g ai/ha,5
same,Plant response rating (scale of 0 to 100 where 0 is no effect and 100 is complete control),[11]; 125 g ai/ha,5
same,Plant response rating (scale of 0 to 100 where 0 is no effect and 100 is complete control),[11]; 250 g ai/ha,5
same,pest or weed control at 250 g/ha,[12],40%
same,Plant response rating (scale of 0 to 100 where 0 is no effect and 100 is complete control),[13]; 31 g ai/ha,70
same,Plant response rating (scale of 0 to 100 where 0 is no effect and 100 is complete control),[13]; 62 g ai/ha,80
same,Plant response rating (scale of 0 to 100 where 0 is no effect and 100 is complete control),[13]; 125 g ai/ha,85
same,Plant response rating (scale of 0 to 100 where 0 is no effect and 100 is complete control),[13]; 250 g ai/ha,95
same,Plant response rating (scale of 0 to 100 where 0 is no effect and 100 is complete control),[14]; 31 g ai/ha,80
same,Plant response rating (scale of 0 to 100 where 0 is no effect and 100 is complete control),[14]; 62 g ai/ha,80
same,Plant response rating (scale of 0 to 100 where 0 is no effect and 100 is complete control),[14]; 125 g ai/ha,85
same,Plant response rating (scale of 0 to 100 where 0 is no effect and 100 is complete control),[14]; 250 g ai/ha,85
same,Plant response rating (scale of 0 to 100 where 0 is no effect and 100 is complete control),[15]; 31 g ai/ha,5
same,Plant response rating (scale of 0 to 100 where 0 is no effect and 100 is complete control),[15]; 62 g ai/ha,5
same,Plant response rating (scale of 0 to 100 where 0 is no effect and 100 is complete control),[15]; 125 g ai/ha,5
same,Plant response rating (scale of 0 to 100 where 0 is no effect and 100 is complete control),[15]; 250 g ai/ha,10
same,"Corn plant response rating (crop injury, 0 = no effect, 100 = complete kill) at 125 g/ha",[16]; 125 g ai/ha,40%
same,"Corn plant response rating (crop injury, 0 = no effect, 100 = complete kill) at 500 g/ha",[16]; 500 g ai/ha,70%
same,Plant response rating (scale of 0 to 100 where 0 is no effect and 100 is complete control),[17]; 31 g ai/ha,5
same,Plant response rating (scale of 0 to 100 where 0 is no effect and 100 is complete control),[17]; 62 g ai/ha,10
same,Plant response rating (scale of 0 to 100 where 0 is no effect and 100 is complete control),[17]; 125 g ai/ha,15
same,Plant response rating (scale of 0 to 100 where 0 is no effect and 100 is complete control),[17]; 250 g ai/ha,15
same,Plant response rating (scale of 0 to 100 where 0 is no effect and 100 is complete control),"[18]; Oilsee Rape, 250 g ai/ha",95
same,Plant response rating (scale of 0 to 100 where 0 is no effect and 100 is complete control),"[18]; Oilseed Rape, 31 g ai/ha",55
same,Plant response rating (scale of 0 to 100 where 0 is no effect and 100 is complete control),"[18]; Oilseed Rape, 62 g ai/ha",55
same,Plant response rating (scale of 0 to 100 where 0 is no effect and 100 is complete control),"[18]; Oilseed Rape, 125 g ai/ha",95
same,Plant response rating (scale of 0 to 100 where 0 is no effect and 100 is complete control),[19]; 31 g ai/ha,90
same,Plant response rating (scale of 0 to 100 where 0 is no effect and 100 is complete control),[19]; 62 g ai/ha,90
same,Plant response rating (scale of 0 to 100 where 0 is no effect and 100 is complete control),[19]; 125 g ai/ha,90
same,Plant response rating (scale of 0 to 100 where 0 is no effect and 100 is complete control),[19]; 250 g ai/ha,90
same,pest or weed control at 125 g/ha,[20]; 125 g ai/ha,80%
same,pest or weed control at 500 g/ha,[20]; 500 g ai/ha,90%
